Assay results reported in PMC12136225, “Antinociceptive effects of intrathecal Neuropeptide B/W receptor 1 agonists in mouse acute nociception, peripheral neuropathy, and inflammatory pain models” (Research Square, 2025).

How the values were obtained:
C57BL/6 mice [1] = assay: Acute nociception hot plate latency assay; type: in vivo, mouse; details: for Duration of significant antinociception after administration / Onset of significant antinociceptive effect / Time of peak antinociceptive effect: i.t. 56 and 100 μg, hot plate, n = 8; for ED50 Hot Plate Latency: i.t. injection, 1 hour following treatment, 52 °C hot plate, % MPE, male and female mice, n = 8, 95% confidence intervals in parentheses
Protocol: (§1) NPB-23 ([…]NH2) and RTIBW-16 ([desaminoTrp^1]-Tyr-Lys-Ava-Ava-Ava-Gly-Arg-Ala-Ala-Gly-Leu-Leu-NH2, compound 30 in Ref. [27]) were synthesized as previously reported. RTIBW-16 and NPB-23 were administered via i.t. injections between L4 and L5 vertebrae with an injection volume of 5 μL. The dosing of these compounds was based on previous literature.
(§2) Intrathecal injections were conducted as previously described; injections occurred between the L4 and L5 vertebrae. Briefly, an ‘injection catheter’ made from a 27-gauge needle and polyethylene (PE) 20 tubing was connected to a 10 μl Hamilton syringe. Injections occurred over 5 sec and were generally accompanied by a hind paw twitch response. A 100% motor recovery rate was observed.
Acute nociception measurements were collected via the hot plate latency assay as previously described. Mice were placed on a heated (52 °C) enclosed Hot Plate Analgesia Meter (Columbus Instruments, Columbus, OH). The latency to jump/lick/shake/flick a hind paw was recorded. A 30 second cut-off was used to prevent tissue damage. Latencies were recorded prior to administration of compounds and at each time point over the 24-hour study (0.5, 1, 1.5, 2, 3, 4, 6, 24 hr time points). Latency measurements were taken by observers blinded to treatment conditions. Mice were given a 1-week washout period between test days.
(§3) Hot plate data were converted to percent maximum possible effect (% MPE) with the following equation: ([experimental test value – baseline value) / (30 sec – baseline value)] * 100). Behavioral data were analyzed using a repeated measures two-way analysis of variance (ANOVA) for RTIBW-16 and NPB-23 treatment time course analysis with time as one factor and compound dosing as a second factor [35]. Individual treatment effects were analyzed using repeated measures one-way ANOVA. Dunnett’s test was used for post hoc analysis following a significant ANOVA result. Two tailed, paired t-tests were conducted to compare the magnitude of baseline von Frey measurements to their respective pre-paclitaxel and pre-carrageenan measurements. A p value of < 0.05 was considered statistically significant. As no significant sex effect was observed, male and female data were collapsed. […] When the mean effect of a drug in an experiment was greater than 50%, the ED50 values and corresponding 95% confidence limits were calculated using linear regression, where slopes were allowed to vary. The computer program GraphPad Prism version 10.3 (GraphPad Software Inc.; San Diego, CA) was used in the statistical analyses. Data are plotted as mean ± the standard error of the mean.

C57BL/6 mice [2] = assay: Carrageenan inflammatory pain model, von Frey mechanical allodynia; type: in vivo, mouse; details: for Attenuation of carrageenan-induced mechanical allodynia: i.t. 100 μg and 56 μg; for Attenuation of carrageenan-induced mechanical allodynia / Time of delayed-onset partial mechanical allodynia attenuation after administration: von Frey, n = 8; for ED50 Carrageenan von Frey: i.t. injection, 1 hour following treatment, carrageenan-induced mechanical allodynia, n = 8, 95% confidence intervals in parentheses; for Time of delayed-onset partial mechanical allodynia attenuation after administration: i.t. lower doses of 10 μg and 5.6 μg
Protocol: as §1
(§4) Paclitaxel was purchased from Bio-Techne (Minneapolis, MN) and was administered in a vehicle solution containing a 1:1:18 ratio of ethanol (100%), polyethylene glycol monooleyl ether (Tokyo Chemical Industry America; Portland, OR), and saline (0.9% w/v NaCl) as previously described. A dosing cycle of paclitaxel consisted of a total of four intraperitoneal (i.p.) paclitaxel injections (8 mg/kg per injection, given every other day. Carrageenan was purchased from Sigma-Aldrich (St. Louis, MO) and made into a 0.3% w/v solution in saline for injections.
as §2
After use in the hot plate latency assay, the same cohort was then used for the carrageen model of inflammatory pain. Mice were given at least a one-week washout period between experimental use. Mice were habituated to the von Frey apparatus and were assessed using the same “up-down” method as described earlier. The carrageenan inflammatory pain model was induced as previously described. Briefly, an intraplantar injection of 0.3% w/v carrageenan in a 20 μL volume using a 27-gauge needle was administered into the right hind paw. […]. The left paw served as an internal control for each subject. The change in paw thickness from baseline was assessed with digital caliper measurements. Paw thickness and von Frey responses were measured over a 24-hour time course (1, 2, 3, 4, 6, 24 hr timepoints), with paw thickness measurements occurring immediately after the von Frey assay at each time point. Mechanical allodynia assessments and paw thickness measurements were conducted by observers blinded to treatment conditions. Intraplantar administration of carrageenan and digital caliper measurement of paw edema were conducted with mice restrained utilizing a plexiglass mouse restrainer (Stoelting Co., Wood Dale, IL)
as §3

C57BL/6 mice [3] = assay: Carrageenan-induced paw edema (paw thickness, digital caliper); type: in vivo, mouse; details: i.t., 1 hour time point, change in paw thickness, n = 8
Protocol: as §1
Paclitaxel was purchased from Bio-Techne (Minneapolis, MN) and was administered in a vehicle solution containing a 1:1:18 ratio of ethanol (100%), polyethylene glycol monooleyl ether (Tokyo Chemical Industry America; Portland, OR), and saline (0.9% w/v NaCl) as previously described. […]
After use in the hot plate latency assay, the same cohort was then used for the carrageen model of inflammatory pain. […] Mice were habituated to the von Frey apparatus and were assessed using the same “up-down” method as described earlier. […] The change in paw thickness from baseline was assessed with digital caliper measurements. Paw thickness and von Frey responses were measured over a 24-hour time course (1, 2, 3, 4, 6, 24 hr timepoints), with paw thickness measurements occurring immediately after the von Frey assay at each time point. […]

[4] = cited from earlier work
Text: (§5) So far, behavioral studies have mostly been conducted in rats and relied on exogenous administration of endogenous ligands. NPB is a 29 amino acid peptide with a bromine at the C-6 position of the indole moiety in the N-terminal tryptophan (Trp). […] NPW exists in two functional peptide forms consisting of 23 and 30 amino acid residues.

C57BL/6 mice [5] = assay: Paclitaxel CIPN model, von Frey mechanical allodynia; type: in vivo, mouse; details: for Duration of reversal of mechanical allodynia following treatment: i.t. 100 and 56 μg, paclitaxel CIPN, n = 8
Protocol: as §1, §4, §2
To assess mechanical allodynia within CIPN, mice were habituated to the von Frey testing environment for four consecutive days in 30-minute sessions prior to the first testing session. Baselines were measured as previously described using von Frey monofilaments (North Coast Medical; Morgan Hills, CA) to establish responses to light mechanical touch before paclitaxel or vehicle administration. During testing mice were placed atop a wire mesh screen with spaces 0.5 mm apart. Mice were singly placed beneath an inverted wire mesh basket (8 cm diameter, 15 cm height) and allowed to habituate to the apparatus for 30 minutes before testing. The von Frey assay utilizes a series of calibrated monofilaments (0.4–4.0 g stimulus intensity), applied to the left and right plantar surface of the hind paws utilizing the “up-down” method. […] Responses from the von Frey assay were measured over a 24-hour time course (1, 2, 3, 4, 6, 24 hr timepoints). […]
Hot plate data were converted to percent maximum possible effect (% MPE) with the following equation: ([experimental test value – baseline value) / (30 sec – baseline value)] * 100). Behavioral data were analyzed using a repeated measures two-way analysis of variance (ANOVA) for RTIBW-16 and NPB-23 treatment time course analysis with time as one factor and compound dosing as a second factor [35]. Individual treatment effects were analyzed using repeated measures one-way ANOVA. […]

NPBWR1 = details: NPB-23 ref 24, 25; RTIBW-16 ref 27; cited from earlier work
Text: as §5

Substance | Duration of significant antinociception after administration (C57BL/6 mice [1]) | Onset of significant antinociceptive effect (C57BL/6 mice [1]) [h] | Time of peak antinociceptive effect (C57BL/6 mice [1]) [h] | ED50 Hot Plate Latency (C57BL/6 mice [1]) | Attenuation of carrageenan-induced mechanical allodynia (C57BL/6 mice [2]) | ED50 Carrageenan von Frey (C57BL/6 mice [2]) | Time of delayed-onset partial mechanical allodynia attenuation after administration (C57BL/6 mice [2]) [h] | Effect on carrageenan-induced paw edema (initial swelling) compared to vehicle (C57BL/6 mice [3]) | Metabolic stability in rat plasma [4] | Duration of reversal of mechanical allodynia following treatment (C57BL/6 mice [5]; von Frey) | In vitro NPBWR1 agonist activity compared with NPB (NPBWR1) | ED50 Paclitaxel CIPN von Frey (C57BL/6 mice [5]; i.t. injection, 1 hour following treatment, reversal of paclitaxel-induced mechanical allodynia, n = 8, 95% confidence intervals in parentheses) | Reversal of CIPN mechanical allodynia at 1 hour timepoint (C57BL/6 mice [5]; i.t., von Frey, 1 hour)
[desaminoTrp^1]-Tyr-Lys-Ava-Ava-Ava-Gly-Arg-Ala-Ala-Gly-Leu-Leu-NH2 [RTIBW-16] | 2 h | 0.5 | 1.5 | 42.86 (25.09–73.21) μg | fully attenuated peak carrageenan-induced mechanical allodynia | 29.47 (21.71–40.00) μg | 3 | significantly reduced the magnitude of initial swelling | improved metabolic stability in rat plasma | up to 3 hours |  |  | 
Trp-Tyr-Lys-Pro-Ala-Ala-Gly-His-Ser-Ser-Tyr-Ser-Val-Gly-Arg-Ala-Ala-Gly-Leu-Leu-Ser-Gly-Leu-NH2 [NPB-23, truncated human NPB without a bromine at the N-terminal Trp residue; NPBWR1 agonist] | up to 6 hours | 0.5 | 1.5 | 18.36 (10.17–33.15) μg | robust mechanical allodynia blockade | 19.92 (13.52–29.35) μg | 2 | significantly reduced the magnitude of initial swelling |  | up to 2 hours | equipotent | 45.06 (33.91–59.88) μg | reverse the CIPN mechanical allodynia back to the baseline
